# Measured values taken from patent US20140023611A1 (priority 2010, published 2014).
# Assays:
# [1] = Fecal recovery of orally administered compounds; type: in vivo, Sprague-Dawley rats; settings: Structure (I) examples, Table 16; rat, oral gavage, feces collected until 48 hr after dosing
# Description: (§1) The animals were kept in metabolic cages and feces were collected from the time of dosing until 48 hr after dosing. Upon collection, feces were dried by lyophilization and ground to a visually homogenous powder. Duplicate samples of ground feces from each individual animal were weighed out and extracted using organic solvent. […] Extraction conditions were not optimized for individual compounds, and thus may represent a minimal level of recovery.
# as §1, with “collection, feces was dried by” for “collection, feces were dried by”
# as §1, with “collection, feces was dried by” for “collection, feces were dried by”
# The animals were kept in metabolic cages and feces were collected from the time of dosing until 48 hr after dosing. Upon collection, feces was dried by lyophilization and ground to a visually homogenous powder. Duplicate samples of ground feces from each individual animal were weighed out and extracted using organic solvent.
# rat NaP2b (SLC34A2) = molecular target: T1, rat NaP2b (SLC34A2) (Rattus norvegicus, UniProt Q9JJ09); assay: Inhibition of NaP2b-mediated Pi (33P) uptake in transfected HEK293 cells, rat NaP2b; type: cell-based; settings: 33P Pi uptake, 0.1 mM phosphate, value given as pIC50 range
# T1 construct: host or cells: HEK293
# T1 sequence (Q9JJ09 1-695): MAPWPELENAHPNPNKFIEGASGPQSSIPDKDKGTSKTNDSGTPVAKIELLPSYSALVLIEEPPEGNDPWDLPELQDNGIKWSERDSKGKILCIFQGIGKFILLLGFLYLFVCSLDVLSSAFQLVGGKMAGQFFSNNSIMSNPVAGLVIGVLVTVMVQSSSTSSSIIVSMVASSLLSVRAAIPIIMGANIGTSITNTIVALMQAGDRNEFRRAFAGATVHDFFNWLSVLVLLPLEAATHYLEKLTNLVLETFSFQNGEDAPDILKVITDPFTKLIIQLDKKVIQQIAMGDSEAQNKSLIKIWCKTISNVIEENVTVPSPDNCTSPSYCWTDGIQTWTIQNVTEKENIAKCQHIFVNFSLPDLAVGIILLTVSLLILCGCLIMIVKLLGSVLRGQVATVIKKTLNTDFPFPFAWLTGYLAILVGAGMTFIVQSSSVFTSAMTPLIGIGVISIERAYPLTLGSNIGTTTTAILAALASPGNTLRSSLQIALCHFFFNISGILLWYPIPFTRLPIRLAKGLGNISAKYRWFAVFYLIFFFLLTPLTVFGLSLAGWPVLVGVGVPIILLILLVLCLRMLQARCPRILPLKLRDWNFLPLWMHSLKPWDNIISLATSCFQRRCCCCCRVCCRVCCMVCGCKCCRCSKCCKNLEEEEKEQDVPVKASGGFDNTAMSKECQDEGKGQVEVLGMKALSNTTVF
# Outline: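 The cells transiently expressed NaP2b after Lipofectamine transfection. Each compound was run in duplicate over twelve concentrations, 0.1 nM–30 uM.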
# [2] = Stability of compounds in simulated intestinal fluid (SIF); type: in vitro ADME; settings: simulated intestinal fluid (3 mg/mL pancreatin), incubation time 6 hr, relative to t=0
# Outline: (§2)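 Compounds at […] were incubated 3 or 6 hr in USP simulated gastric fluid with 3 mg/mL pepsin or simulated intestinal fluid with 3 mg/mL pancreatin. Remaining compound was quantified by HPLC-UV or HPLC-MS peak area % and reported as percent of the t=0 level in the same medium.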
# [3] = Stability of compounds in simulated gastric fluid (SGF); type: in vitro ADME; settings: simulated gastric fluid (3 mg/mL pepsin), incubation time 6 hr, relative to t=0
# Outline: as §2
# [4] = Determination of compound Cmax and AUC after oral gavage (plasma LC-MS/MS); type: in vivo, Sprague-Dawley rats; settings: Sprague-Dawley, rat, plasma, po, Structure (I) examples
# Outline: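 Plasma exposure measured by LC-MS/MS after acetonitrile precipitation with internal standard, quantified against a standard curve made in plasma. Compound given orally by gavage to Sprague-Dawley rats at nominal 2.5 or 10 mg/kg, with K2EDTA plasma sampled at 0.5, 1, 2 and 4 h.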
# [5] = tested on: Uptake of Phosphorus from the Intestine; assay: In vivo co-dosing in chow (urine P out / P consumed); settings: Rattus norvegicus, feed or water; rats, compound in chow; mean drug dose 100 mg/kg/day; read-out: Mean % inhibition Urine Pout/P consumed
# Description: Male, 7-week-old Sprague-Dawley rats (Charles-River laboratories international, Hollister, Calif.) were allowed to acclimate for a minimum of 3 days. The experiment was initiated by switching animals to a synthetic diet (0.6% phosphorus and 0.6% calcium, Harlan Teklad TD.84122) for four days. After this time, the animals were placed into metabolic cages for daily monitoring of food and water consumption, as well as urine and fecal collections. Test compounds were incorporated into the powdered diet listed above containing 3% chocolate flavoring (w/w, BioServ #7345) at 1.3 mg test compound per gram of diet to achieve an average daily nominal dose of 100 mg/kg/day. The actual dose received by each animal was later determined by measuring prepared diet consumption and body weight. Urine samples were collected in three daily periods from 24-48, 48-72, and 72-96 hours of drug dosing. Averaging these three 24 h periods allows for the more representative measurements of urination, fecal excretion, food consumption and water uptake for each animal. Phosphorus levels in the urine were determined by anion exchange chromatography using a Dionex ICS-3000 ion chromatography system. Urine samples were diluted 1:500 or 1:1000 and injected onto an IonPac AS18 analytical column (2×250 mm) using a potassium hydroxide eluent. Elution of urine phosphate ions was monitored via conductivity detector and reported as ppm relative to a standard ion solution containing phosphate. Daily urinary P output relative to the P consumed in the prepared diet for each animal was calculated. The percentage inhibition of phosphorus absorption was estimated by determining the reduction of this ratio compared to the control group (animals with no drug in chow). The differences between the means of control and treated groups were evaluated by t tests. In all experiments, one group was always included that had Renvela powder blended into their chow at 0.9% targeting a dose of 750 mg/kg.
# human NaP2b (SLC34A2) = molecular target: T2, human NaP2b (SLC34A2) (Homo sapiens, UniProt O95436); assay: Inhibition of NaP2b-mediated Pi (33P) uptake in transfected HEK293 cells, human NaP2b; type: cell-based; settings: read-out: pIC50 range for human NaP2b (converted)
# T2 construct: host or cells: HEK293
# T2 sequence (O95436 1-690): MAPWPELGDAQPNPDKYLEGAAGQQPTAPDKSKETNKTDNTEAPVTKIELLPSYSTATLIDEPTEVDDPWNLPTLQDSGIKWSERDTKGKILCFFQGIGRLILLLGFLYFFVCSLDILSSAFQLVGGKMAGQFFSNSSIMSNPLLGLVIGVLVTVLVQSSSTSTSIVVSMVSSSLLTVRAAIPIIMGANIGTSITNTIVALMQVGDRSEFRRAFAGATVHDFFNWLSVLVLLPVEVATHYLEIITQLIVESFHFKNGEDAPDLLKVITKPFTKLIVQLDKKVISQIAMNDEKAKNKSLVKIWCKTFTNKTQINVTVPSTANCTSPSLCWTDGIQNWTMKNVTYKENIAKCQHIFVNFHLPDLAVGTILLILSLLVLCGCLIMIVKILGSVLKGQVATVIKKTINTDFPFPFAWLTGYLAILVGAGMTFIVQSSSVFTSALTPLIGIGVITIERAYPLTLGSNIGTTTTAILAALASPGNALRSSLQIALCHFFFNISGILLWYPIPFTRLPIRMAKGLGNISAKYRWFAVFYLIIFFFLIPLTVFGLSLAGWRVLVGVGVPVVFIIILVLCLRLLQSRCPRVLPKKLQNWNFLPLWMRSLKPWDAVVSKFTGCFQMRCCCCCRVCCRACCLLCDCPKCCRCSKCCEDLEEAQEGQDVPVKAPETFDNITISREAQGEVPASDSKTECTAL
# Outline: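 Uptake of 33P-phosphate (100 uM KH2PO4 carrier, sodium vs choline buffer, pH 7.4) measured after 3-30 min at room temperature, with test compound at twelve concentrations from 0.1 nM to 30 uM in duplicate. Cells were HEK293 transfected with mutated human NaP2b (Thr insertion after 37, N39D) and treated with a PiT-silencing agent. pIC50 values from scintillation counts.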
# [6] = Table 15, actual oral dose 3-15 mg/kg, plasma 0.5-4 h
# [7] = Table 15, actual oral dose 15-40 mg/kg, plasma 0.5-4 h
% recovered in feces [1],IC50 (rat NaP2b (SLC34A2)),"% remaining, SIF [2]","% remaining, SGF [3]","AUC [4, 6]","Cmax [4, 6]",IC50 (human NaP2b (SLC34A2)),"AUC [4, 7]","Cmax ([4]; Table 15, plasma 0.5-4 h)",Structure (SMILES),inhibition in vivo at 100 mg/kg/day [5]
<20%,1 to 7.94 µM,,,,,,,,O=C(NCc1cccc(C(F)(F)F)c1)c1ccnc(-c2cc(N3CCCCC3)ccc2NC(=O)c2cccc(CSCCCO)c2)c1 [Example 8.3],
<20%,1 to 7.94 µM,>80%,>80%,< 10 ng·h/mL,< 10 ng/mL,,,,O=C(O)CCOCCOCCOCCNC(=O)Cc1cccc(SCc2cccc(C(=O)Nc3ccc(N4CCCCC4)cc3-c3cc(C(=O)NCc4cccc(C(F)(F)F)c4)ccn3)c2)c1 [Example 137],
,1 to 7.94 µM,>80%,>80%,,,1 to 7.94 µM,,,"CCN(CC)c1ccc(NC(=O)c2cccc(C(=O)N(C)CCN3CCC[C@H]3C(=O)NCCOCCOCCOCCOCCOCCOCCOCCOC)c2)c(-c2cc(C(=O)NCc3cccc(C(F)(F)F)c3)ccn2)c1 [Example 203, (S)—N^1-(2-(2-(2,5,8,11,14,17,20,23-octaoxapentacosan-25-ylcarbamoyl)pyrrolidin-1-yl)ethyl)-N^3-(4-(diethylamino)-2-(4-((3-(trifluoromethyl)benzyl)carbamoyl)pyridin-2-yl)phenyl)-N^1-methylisophthalamide]",≤ 10%
<20%,10 to 31.6 µM,>80%,40-60%,< 10 ng·h/mL,< 10 ng/mL,,,,"O=C(O)CCOCCOCCOCCNC(=O)c1cccc(SCc2cccc(C(=O)Nc3ccc(Cl)cc3-c3cc(C(=O)NCc4cccc(C(F)(F)F)c4)ccn3)c2)c1 [Example 264, 1-(3-(3-(4-chloro-2-(4-(3-(trifluoromethyl)benzylcarbamoyl)pyridin-2-yl)phenylcarbamoyl)benzylthio)phenyl)-1-oxo-5,8,11-trioxa-2-azatetradecan-14-oic acid]",

# Second part, the compound before the results:
Structure (SMILES),% recovered in feces [1],IC50 (rat NaP2b (SLC34A2)),"% remaining, SIF [2]","% remaining, SGF [3]","AUC [4, 6]","Cmax [4, 6]",IC50 (human NaP2b (SLC34A2)),"AUC [4, 7]","Cmax ([4]; Table 15, plasma 0.5-4 h)",inhibition in vivo at 100 mg/kg/day [5]
CC(C)(SCc1cccc(C(=O)Nc2ccc(N3CCCCC3)cc2-c2cc(C(=O)NCc3cccc(C(F)(F)F)c3)ccn2)c1)C(=O)O [Example 8.6],20-80%,1 to 7.94 µM,>80%,>80%,> 50 ng·h/mL,< 50 ng/mL,,,,
"CCN(CC)c1ccc(NC(=O)c2cccc(CCCOCCOCCOCCOCCC(=O)N3CCN(C(=O)c4cccc(CCCOCCOCCOCCOCCOCCOCCOCCOCCOC)c4)CC3)c2)c(-c2cc(C(=O)NCc3cccc(C(F)(F)F)c3)ccn2)c1 [Example 262, 2-(2-(3-(16-(4-(3-(2,5,8,11,14,17,20,23,26-nonaoxanonacosan-29-yl)benzoyl)piperazin-1-yl)-16-oxo-4,7,10,13-tetraoxahexadecyl)benzamido)-5-(diethylamino)phenyl)-N-(3-(trifluoromethyl)benzyl)isonicotinamide]",20-80%,1 to 7.94 µM,,,,,1 to 7.94 µM,< 50 ng·h/mL,< 10 ng/mL,
"CCN(CC)c1ccc(NC(=O)c2cccc(CCCOCCOCCOCCOCCNC(=O)c3cccc(CCCOCCOCCOCCOCCOCCOCCOCCOCCOC)c3)c2)c(-c2cc(C(=O)NCc3cccc(C(F)(F)F)c3)ccn2)c1 [Example 271, 2-(2-(3-(1-(3-(2,5,8,11,14,17,20,23,26-nonaoxanonacosan-29-yl)phenyl)-1-oxo-5,8,11,14-tetraoxa-2-azaheptadecan-17-yl)benzamido)-5-(diethylamino)phenyl)-N-(3-(trifluoromethyl)benzyl)isonicotinamide]",20-80%,1 to 7.94 µM,,,,,,> 50 ng·h/mL,< 30 ng/mL,
"CCN(CC)c1ccc(NC(=O)c2cccc(CCCOCCOCCOCCOCCNS(=O)(=O)c3ccc(CCC(=O)O)cc3)c2)c(-c2cc(C(=O)NCc3cccc(C(F)(F)F)c3)ccn2)c1 [Example 294, 3-(4-(N-(15-(3-(4-(diethylamino)-2-(4-(3-(trifluoromethyl)benzylcarbamoyl)pyridin-2-yl)phenylcarbamoyl)phenyl)-3,6,9,12-tetraoxapentadecyl)sulfamoyl)phenyl)propanoic acid]",>80%,< 1 µM,,,> 50 ng·h/mL,< 10 ng/mL,< 1 µM,,,
